Measured values: article PMC9695599, “N-Terminally Lipidated Sialorphin Analogs—Synthesis, Molecular Modeling, In Vitro Effect on Enkephalins Degradation by NEP and Treatment of Intestinal Inflammation in Mice” (International Journal of Molecular Sciences, 2022)
Residues, ends and D or L forms follow the SMILES beside them.

Tests used:
[1] = tested on: DSS-induced colitis in mice; experiment: DSS-induced mouse model of colitis; format: in vivo, mouse (male BALB/C); details: for Effect on microscopic damage score / colon architecture (in words): DSS-induced colitis, peptide 1 mg/kg i.p. twice daily day 3-6, hematoxylin-eosin stained distal colon sections, day 7
Description: Male BALB/C mice obtained from University of Lodz, Poland, weighing 22–25 g (6–8 weeks of age), were used. The mice were kept at a constant temperature (22–23 °C) and maintained under a 12 h light/dark cycle with constant access to laboratory chow and tap water. All animal protocols were approved by the Medical University of Lodz Animal Care Committee (Protocol 2/ŁB 123/2019 and 17/ŁB 132/2019) and complied with Directive 2010/63/EU of the European Parliament and of the Council of 22 September 2010. All efforts were made to minimize animal suffering and to reduce the number of animals used.
Colonic inflammation was induced as described before. From day 0 to day 5, mice received DSS: 4% w/v and molecular weight 40,000 (PanReac AppliChem, Darmstadt, Germany) in drinking water. On days 6 and 7, the DSS solution was replaced with tap water. Control animals were given drinking water throughout the whole experiment. Animal body weight was monitored daily. Mice were sacrificed by cervical dislocation on day 7, and colonic damage was evaluated.
Treatment was administered intraperitoneally (i.p.) twice daily from day 3 to day 6 after colitis induction, 100 µL/mouse. Peptides were administered at the dose of 1 mg/kg bw. Control and DSS groups received vehicle alone (100 µL/mouse, i.p.).
On day 7 of the experiment, mice were euthanized. For total macroscopic damage score evaluation, the colon was removed immediately after cervical dislocation and weighed with fecal content. Next, the colon was opened longitudinally, and the feces were removed.
Total macroscopic damage score was calculated based on the stool consistency (0—normal, well-shaped fecal pellets; 3—diarrhea), colon epithelial damage (0–3), and colon length and weight scores, calculated as a loss of each parameter relative to the control group (0 points, ≤5% weight/length loss; 1 point, 5–14% weight/length loss; 2 points, 15–24% weight/length loss; 3 points, 25–35% weight/length loss; and 4 points, ≥35% weight/length loss). […] The presence (score = 1) or absence (score = 0) of fecal blood was also recorded. […]

[2] = Stability of peptides in human plasma; format: in vitro ADME; details: 37 °C, 200 µL peptide solution (1 mg/mL in PBS pH 7.42) + 50 µL human plasma, ethanol deproteinization, RP-HPLC peak area vs 0 h, at least triplicate; for Stability in human plasma relative to heterodimer of sialorphin and spinorphin, after 4 h: 4 h incubation; for Level of remaining peptide in human plasma relative to heterodimer of sialorphin and spinorphin, after 24 h: 24 h incubation
Description: Compounds VII and VIII were the strongest inhibitors of NEP in vitro and were thus included in stability assays. Peptides were incubated in the human plasma at 37 °C, and their degradation was analyzed by RP HPLC. The stability of peptides VII–VIII was compared to that of a heterodimer of sialorphin and spinorphin and not sialorphin alone. In previously described stability assays of sialorphin alone, the 48% TFA solution was used to precipitate proteins before HPLC analysis. In the case of the peptides VII and VIII, we had to use ethanol instead of the TFA solution. This change was required by the fact that in the latter solution, an emergence of a degradation product that was characterized by identical retention time on HPLC as that of peptides VII and VIII occurred. Consequently, a different reference was used (heterodimer of sialorphin and spinorphin instead of sialorphin).
Plasma-stability assays were performed by applying procedure described by Sobocińska et al.. Each peptide solution was prepared by dissolving 1 mg of a peptide in 1 mL of PBS buffer (pH 7.42). The samples containing the peptide (200 µL) and freshly […] plasma (50 µL) were incubated at 37 °C. The samples were analyzed after 0, 2, 4, and 24 h. At each time interval 40 μL of the mixture was taken and deproteinized by addition of a ethanol (120 µL). The aliquots were centrifuged at 14,500 rpm for 5 min. The supernatants were filtered over Millipore Millex-GV syringe filters (Merck Life Science, Poznan, Poland) and analyzed with RP-HPLC on a Phenomenex Gemini-NX C18 5 µm column (4.6 mm × 150 mm) using the solvent system of 0.1% TFA in water (A) and 0.1% TFA in acetonitrile (B) and linear gradients of 20–80% (B) over 20 min, at a flow rate of 1.5 mL/min. To assess the stability at each time interval, the area of the peptide peak from the chromatogram was calculated and expressed as the percentage of the area of the peak recorded just after mixing a peptide with plasma (0-hour). The assay was performed at least in triplicate for each peptide.

[3] = target: neutral endopeptidase (NEP) (Homo sapiens, UniProt P08473); experiment: Degradation of Met-enkephalin by NEP alone and in the presence of inhibitors; details: for 1000 × k, degradation rate of Met-enkephalin incubated with NEP in the presence of inhibitor / t1/2, half-life of Met-enkephalin incubated with NEP in the presence of inhibitor: Met-enkephalin 0.0413 mM, inhibitor 0.156 mM, NEP 5.687 nM, Tris–HCl 50 mM pH 7.4, 37 °C, 0, 30, 60, 90, 120 min, RP-HPLC, mean ± SEM, triplicates
Description: Determination of Met-enkephalin degradation rates was performed, as described previously. Purified enzyme NEP was purchased from Merck (Warsaw, Poland). Solutions of Met-enkephalin, NEP, and inhibitors were prepared by dissolving them in a Tris–HCl buffer (50 mM, pH 7.4). In investigated samples, the concentrations of Met-enkephalin, inhibitors, and NEP were, respectively, 0.0413 mM, 0.156 mM, and 5.687 nM. The samples consisting of NEP, Met-enkephalin, and the inhibitor were incubated over 0, 30, 60, 90, and 120 min at 37 °C in a final volume of 300 μL. The reaction was stopped with a 1 M aqueous HCl solution. In the next steps, the samples were centrifuged and the supernatants were filtered and analyzed by RP-HPLC. All measurements were performed in triplicates.

Chain of neutral endopeptidase (NEP) (P08473 whole entry, species assumed): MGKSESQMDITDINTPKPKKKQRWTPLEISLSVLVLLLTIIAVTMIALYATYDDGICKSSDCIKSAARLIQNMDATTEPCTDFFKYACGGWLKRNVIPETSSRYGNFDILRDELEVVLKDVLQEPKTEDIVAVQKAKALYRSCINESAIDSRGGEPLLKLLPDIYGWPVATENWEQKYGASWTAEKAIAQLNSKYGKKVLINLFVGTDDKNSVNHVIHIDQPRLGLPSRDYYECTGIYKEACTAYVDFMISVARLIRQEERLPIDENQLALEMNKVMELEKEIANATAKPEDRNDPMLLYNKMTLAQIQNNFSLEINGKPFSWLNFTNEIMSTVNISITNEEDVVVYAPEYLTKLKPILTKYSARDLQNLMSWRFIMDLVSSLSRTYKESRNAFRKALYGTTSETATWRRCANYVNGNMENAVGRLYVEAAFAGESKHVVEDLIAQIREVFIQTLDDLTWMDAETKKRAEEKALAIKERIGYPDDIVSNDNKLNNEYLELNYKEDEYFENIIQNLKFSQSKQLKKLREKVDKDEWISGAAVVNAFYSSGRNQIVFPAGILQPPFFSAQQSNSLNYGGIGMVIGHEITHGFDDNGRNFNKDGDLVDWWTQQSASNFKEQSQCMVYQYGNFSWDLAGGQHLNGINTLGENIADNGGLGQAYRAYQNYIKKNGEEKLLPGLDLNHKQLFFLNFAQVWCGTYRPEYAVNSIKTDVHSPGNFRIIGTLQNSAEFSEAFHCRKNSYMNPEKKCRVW

Row | Structure (SMILES) | Effect on microscopic damage score / colon architecture (in words) [1] | Stability in human plasma relative to heterodimer of sialorphin and spinorphin, after 4 h [2] [times] | Level of remaining peptide in human plasma relative to heterodimer of sialorphin and spinorphin, after 24 h [2] [times] | 1000 × k, degradation rate of Met-enkephalin incubated with NEP in the presence of inhibitor [3] | t1/2, half-life of Met-enkephalin incubated with NEP in the presence of inhibitor [3] [min] | half-life at 0.0413 mM ([3]; isolated enzyme neprilysin, pH 7.4) [min] | Total macroscopic damage score ([1]; DSS 4% w/v in drinking water day 0-5, peptide 1 mg/kg i.p. twice daily day 3-6, evaluated day 7, mean ± SEM, n = 5–10, DSS-only 11.20 ± 0.60, control 0.55 ± 0.18)
1 | CCCCCCCCCCCCCCCCCC(=O)N[C@@H](CCCCN)C(=O)N[C@@H](CCCCN)C(=O)N[C@@H](CCC(N)=O)C(=O)N[C@@H](Cc1c[nH]cn1)C(=O)N[C@@H](CC(N)=O)C(=O)N1CCC[C@H]1C(=O)N[C@@H](CCCNC(=N)N)C(=O)O [VIII] (HELM PEPTIDE1{[CCCCCCCCCCCCCCCCCC(=O)[*:2]].K.K.Q.H.N.P.R}$$$$V2.0) | less pronounced | 1.4 | 5.5 | 0.89 ± 0.10 *** 1/min | 724 ± 43 |  | 
2 | CCCCCCCCCCCCCC(=O)N[C@@H](CCCCN)C(=O)N[C@@H](CCCCN)C(=O)N[C@@H](CCC(N)=O)C(=O)N[C@@H](Cc1c[nH]cn1)C(=O)N[C@@H](CC(N)=O)C(=O)N1CCC[C@H]1C(=O)N[C@@H](CCCNC(=N)N)C(=O)O [VI] (HELM PEPTIDE1{[CCCCCCCCCCCCCC(=O)[*:2]].K.K.Q.H.N.P.R}$$$$V2.0) |  |  |  | 20.06 ± 1.34 ** 1/min | 35 ± 2 |  | 
3 | CCCCCCCCCCCC(=O)N[C@@H](CCCCN)C(=O)N[C@@H](CCCCN)C(=O)N[C@@H](CCC(N)=O)C(=O)N[C@@H](Cc1c[nH]cn1)C(=O)N[C@@H](CC(N)=O)C(=O)N1CCC[C@H]1C(=O)N[C@@H](CCCNC(=N)N)C(=O)O [V] (HELM PEPTIDE1{[CCCCCCCCCCCC(=O)[*:2]].K.K.Q.H.N.P.R}$$$$V2.0) |  |  |  | 23.20 ± 0.89 min⁻¹ | 30 ± 1 |  | 
4 | CSCC[C@H](NC(=O)[C@H](Cc1ccccc1)NC(=O)CNC(=O)CNC(=O)[C@@H](N)Cc1ccc(O)cc1)C(=O)O [Met-Enkephalin, Met-enkephalin, reference compound] |  |  |  |  |  | 27 ± 1 | 
5 | CCCCCCCCCCCCCCCC(=O)N[C@@H](CCCCN)C(=O)N[C@@H](CCCCN)C(=O)N[C@@H](CCC(N)=O)C(=O)N[C@@H](Cc1c[nH]cn1)C(=O)N[C@@H](CC(N)=O)C(=O)N1CCC[C@H]1C(=O)N[C@@H](CCCNC(=N)N)C(=O)O [VII] (HELM PEPTIDE1{[CCCCCCCCCCCCCCCC(=O)[*:2]].K.K.Q.H.N.P.R}$$$$V2.0) | significantly improved colon architecture | 1.4 | 1.3 | 3.46 ± 0.40 *** 1/min | 199 ± 2 |  | 10.20 ± 0.99
